Key:
[1] = tested on: CBRs expressed in HeLa cells; assay: [^3H]CP-55,940 competitive binding screen, HeLa membranes; design: species or system human; conditions: 1 μM ligand, 0.2 nM radioligand
Procedure: (§1) The assay was conducted as previously detailed. […] All binding reactions were conducted in triplicate, in a final volume of 1 mL, and, following mixing, were incubated for 20 min in a 37 °C water bath to achieve equilibrium. After incubation, reactions were terminated by rapid vacuum filtration through Whatman GF/B glass fiber filters (Brandel; Gaithersburg, MD, USA), followed by three washes of 4 mls of ice-cold filtration buffer (50 mM Tris, pH 7.4, and 0.05% bovine serum albumin). Samples were punched out from filter papers into scintillation vials, to which 4 mls of ScintiverseTM-BDR cocktail scintillation fluid (Fisher Scientific; Hampton, NH, USA) was added. Filters were incubated at room temperature for 24 h in scintillation fluid, vortexed, and radioactivity (measured as DPMs) was quantified via a liquid scintillation spectrophotometer (Tri Carb 2100 TR Liquid Scintillation Analyzer, Packard Instruments, Meriden, CT, USA).

[2] = tested on: canonical human CB1Rs (CHO-hCB1); design: method as in PMID 34592231; conditions: 1 μM ligand, 0.2 nM radioligand, CHO-hCB1 membranes; cited from earlier work
[3] = tested on: CBRs expressed in PC-3 cells; assay: [^3H]CP-55,940 competitive binding screen, PC-3 membranes; design: species or system human; conditions: 1 μM ligand, 0.2 nM radioligand
Procedure: as §1

[4] = molecular target: non-canonical CBRs expressed in HeLa; assay: Homologous receptor binding, HeLa; design: species or system human; conditions: homologous competition with [^3H]WIN-55,212-2 (1 nM), read-out: affinity (KD)
Procedure: (§2) All binding reactions were conducted in triplicate, in a final volume of 1 mL, and, following mixing, were incubated for 20 min in a 37 °C water bath to achieve equilibrium. After incubation, reactions were terminated by rapid vacuum filtration and processed for radioactivity, as detailed in Section 4.5.1.
(§3) Curve-fitting and all statistical analyses were performed using GraphPad Prism® v8.0g (GraphPad Software, Inc.; San Diego, CA, USA). For qRT-PCR experiments, a one-way ANOVA, followed by Dunnett’s test as a post hoc test was utilized to compare fold change of PC-3 and DU-145 cancer cells to an arbitrary value of 1, set to the amount of mRNA transcribed from a human normal prostate control. For CBR screening studies, a one-sample t-test was performed to determine differences from 100% (e.g., to quantify compounds producing displacement), followed by a one-way ANOVA and Tukey’s post hoc tests to compare displacement produced by all drugs. […] For LDH release, ATP-dependent cell viability and JC-1 staining assays, drug effects were first analyzed by a one-sample t-test to determine differences from 0 or 100% (vehicle), followed by a one-way ANOVA and Dunnett’s post hoc test to compare all means. […]

[5] = tested on: CBRs expressed in C6-glioma cells; assay: [^3H]CP-55,940 competitive binding screen, C6-glioma membranes; design: species or system mouse; conditions: 1 μM ligand, 0.2 nM radioligand
Procedure: as §1

[6] = tested on: canonical human CB2Rs (CHO-hCB2); design: method as in PMID 34592231; conditions: 1 μM ligand, 1 nM radioligand, CHO-hCB2 membranes; cited from earlier work
[7] = tested on: canonical human CB2Rs (CHO-hCB2); design: method as in PMID 34592231; conditions: 1 μM ligand, 0.2 nM radioligand, CHO-hCB2 membranes; cited from earlier work
[8] = tested on: CBRs expressed in C6-glioma cells; assay: [^3H]WIN-55,212-2 competitive binding screen, C6-glioma membranes; design: species or system mouse; conditions: 1 μM ligand, 1 nM radioligand
Procedure: as §1

[9] = molecular target: non-canonical CBRs expressed in PC-12; assay: Homologous receptor binding, PC-12; design: species or system rat; conditions: homologous competition with [^3H]WIN-55,212-2 (1 nM), read-out: affinity (KD)
Procedure: as §2, §3

NPrEC = assay: LDH cytotoxicity, NPrEC cells; format: cell-based; conditions: NPrEC immortalized non-cancerous cell line
DU-145 cells = assay: ATP-dependent cell viability, DU-145 cells; format: cell-based, human; conditions: 24 h
Procedure: Adenosine 5′-triphosphate (ATP) levels were quantified as a measure of DU-145 cell viability in response to cannabinoid treatement using an ATP-luciferase-based bioluminescence assay kit (CellTiter-Glo®, Sigma, MO, USA) and BioTek microplate reader (Winooski, VT, USA). DU-145 cells were seeded at a density of 8 × 10^3 cells/well in a 96-well plate and incubated for 24 h at 37 °C with 5% CO2. The next day, cells were treated with either vehicle or experimental drugs (10 or 50 μM) and incubated for another 24 h at 37 °C with 5% CO2. ATP levels were assessed following incubation by interpolation from an ATP standard curve according to the manufacturer’s protocol, as described previously.

SMILES | displacement of [^3H]CP-55,940 [1] | displacement of [^3H]CP-55,940 [2] | displacement of [^3H]CP-55,940 [3] | Kd [4] [nM] | displacement of [^3H]CP-55,940 [5] | displacement of [^3H]WIN-55,212-2 (Figure 1B) [6] | displacement of [^3H]CP-55,940 [7] | displacement of [^3H]WIN-55,212-2 (Figure 1B) [8] | Kd [9] [nM] | LDH release (NPrEC) [%] | reduction in ATP-dependent cell viability (ATP levels) (DU-145 cells; 50 μM) [%] | concentration-dependent effect on ATP-dependent viability (DU-145 cells; 10–50 μM)
Cc1c(C(=O)c2cccc3ccccc23)c2cccc3c2n1[C@H](CN1CCOCC1)CO3 [WIN-55,212-2] | neither the non-selective CBR ligand CP-55,940 nor WIN-55,212-2 produced significant displacement | produced near or complete displacement | neither the non-selective CBR ligand CP-55,940 nor WIN-55,212-2 produced significant displacement | 7 ± 1.6 | neither the non-selective CBR ligand CP-55,940 nor WIN-55,212-2 produced significant displacement | produced near or complete displacement | produced near or complete displacement | significantly displaced | 12.6 ± 2.7 |  |  | 
COc1ccc2c(c1)c(CCN1CCOCC1)c(C)n2C(=O)c1cccc(Cl)c1Cl [GW-405833] |  |  |  |  |  |  |  |  |  | 46.4 ± 6.4 | 68.8 ± 4.95 | only produced ATP-dependent reductions in cell viability at the highest 50 μM concentration
